Experimental data from publication PMC12604929, “Tumor-specific cytotoxicity of pyrazole-based chalcone derivatives in human oral squamous cell carcinoma cell lines” (Turkish Journal of Biology, 2025).
“Also recorded” adds a separate entry of the source. Where two headings read alike, the source gives them in different places.

Tests used:
[1] = system: pulp cells (HPC), normal oral cells; assay: MTT cytotoxicity assay, HPC; format: cell-based, human; details: 48 h, average of three determinations
Procedure: (§2) The viable cell number was determined in triplicate by the MTT method, following the approach adopted in previous studies ([Nagai et al., 2018]; [Shi et al., 2018] ). Briefly, the cells were incubated for 2 h with 0.2 mg/mL of MTT, and the formed formazan was dissolved with 0.1 mL of DMSO to determine the relative viable cell number at 560 nm.
(§3) Cells were inoculated at 2×10^3 cells/0.1 ml in a 96-microwell plate. […] Cells were incubated further for 48 h and the relative viable cell number was then determined by the MTT method and expressed as the absorbance of the cell lysate at 560 nm, using a microplate reader (Infinite F50R; TECAN, Männedorf, Switzerland) [49, 50]. Control cells were treated with the same amounts of DMSO and the cell damage induced by DMSO was subtracted from that induced by test agents. The concentration of compound that reduced the viable cell number by 50% (CC50) was determined from the dose–response curve and the mean value of CC50 for each cell type was calculated from triplicate assays.
(§4) All of these cells were cultured at 37°C in DMEM supplemented with 10% heat-inactivated fetal bovine serum, 100 units/ml, penicillin G and 100 µg/ml streptomycin sulfate under a humidified 5% CO2 atmosphere.

[2] = system: Ca9-22 cells (OSCC, gingival tissue); assay: MTT cytotoxicity assay, Ca9-22; format: cell-based, human; details: for TS (C/A) tumor-selectivity index: CC50 HGF / CC50 Ca9-22 (both gingival); for PSE (C/A^2)x100 potency-selectivity expression: HGF vs Ca9-22 (both gingival); for CC50: OSCC, 48 h, MTT, average of three determinations
Procedure: as §2, §3
(§5) Human oral squamous cell carcinoma (OSCC) cell lines [Ca9-22 (derived from gingival tissue); and HSC-2, HSC-3, HSC-4 (derived from tongue)] were purchased from Riken Cell Bank (Tsukuba, Japan). All of these cells were cultured at 37°C in DMEM supplemented with 10% heat-inactivated fetal bovine serum, 100 units/ml, penicillin G and 100 µg/ml streptomycin sulfate under a humidified 5% CO2 atmosphere. Cell morphology was checked periodically under a light microscope (EVOS FL; Thermo Fisher Scientific, Waltham, MA, USA).

HSC-2 cells = assay: Cell-cycle analysis (propidium iodide, cell sorting); format: cell-based, human; details: HSC-2, 24 h; for subG1 cell population: control 1.9 %; for share of S-phase cells: control 15.6%; for share of G2+M phase cells: control 20.5%
Procedure: Cell-cycle analysis was performed following the process described in the literature ([Kantoh et al., 2010]; [Nagai et al., 2018]; [Shi et al., 2018]), details of which are presented in a supplementary file. Briefly, cells (approximately 10^6 in number) were fixed with paraformaldehyde in PBS(−) and treated with RNase A. After staining with propidium iodide in the presence of 0.01% Nonidet-40 to prevent cell aggregation, the cells were filtered through Falcon cell strainers and then subjected to cell sorting, analyzed with Cell Sorter Software (version 2.1.2) (SONY Imaging Products and Solution Inc., Kanagawa, Japan).
HSC-2 cells were incubated for 24 h with actinomycin D (Act.D) (positive control of apoptosis induction) or MS4, 7, or 8, or without treatment (control), and subjected to cell cycle analysis. […] D (1 μM) (p < 0.05) from 1.9 % to 12.5%. […] The cell cycle analysis was performed only with HSC-2 cells; therefore, experiments with other OSCC cell lines should be conducted to support the generalization of our findings.
Treated and untreated cells (approximately 10^6 cells) were harvested, fixed with 1% paraformaldehyde in PBS without calcium and magnesium ions [PBS(−)]. Fixed cells were then washed twice with PBS(−) and treated for 30 min with 400 μl of 0.2 mg/ml RNase A (preheated for 10 min at 100 °C to inactivate DNase) to degrade RNA. Cells were then washed twice with PBS(−) and stained for 15 min with 0.01% propidium iodide (PI) in the presence of 0.01% NP-40 in PBS(−) to prevent cell aggregation. After filtering through Falcon® cell strainers ([…]) (Corning, NY, USA) to remove aggregated cells, PI-stained cells were subjected to cell sorting (SH800 Series; SONY Imaging Products and Solutions Inc., Kanagawa, Japan). Cell-cycle analysis was performed with Cell Sorter Software version 2.1.2. (SONY Imaging Products and Solution Inc.).

[3] = system: human normal oral cells (HGF, HPLF, HPC); assay: MTT cytotoxicity, three normal oral cell types together (mean); format: cell-based; details: mean of HGF, read-out: CC50 normal oral cells mean (D)
Excerpt: (§1) Estimation of CC50 values. […] The mean pCC50 values for normal cells and tumor cell lines were defined as N and T, respectively.

[4] = system: HSC-3 cells (OSCC, tongue); assay: MTT cytotoxicity assay, HSC-3; format: cell-based, human; details: for CC50: OSCC, 48 h, MTT, average of three determinations; for increase of cytotoxicity against HSC-3 compared to MS4: relative to unsubstituted phenyl derivative MS4
Procedure: as §2, §3, §5

[5] = system: human OSCC cell lines (Ca9-22, HSC-2, HSC-3, HSC-4); assay: MTT cytotoxicity, four OSCC cell lines together (mean, TS, PSE, type of growth inhibition); format: cell-based; details: for type of growth inhibition on the OSCC cell lines: from dose-response curves, Figure 4, cytostatic = without complete cytotoxicity, cytotoxic = complete cell death; for TS (D/B) tumor-selectivity index: mean CC50 normal cells / mean CC50 OSCC cell lines; for CC50: mean of Ca9-22, HSC-2, HSC-3, HSC-4, read-out: CC50 OSCC mean (B); for PSE (D/B^2)x100 potency-selectivity expression: three normal cell types vs four OSCC cell lines
Procedure: TS was calculated using the following equation: TS=mean CC50 against three normal oral cell types/mean CC50 against four OSCC cell lines (HGF, HPLF, HPC vs. Ca9-22, HSC-2, HSC-3, HSC-4). Since both Ca9-22 and HGF cells were derived from the gingival tissue, the relative sensitivity of these cells was also compared (as: CC50 against HGF/ CC50 against Ca9-22).
PSE was calculated by the following equation: PSE=mean CC50 against three normal oral cell types/(CC50 against four OSCC cell lines)2 × 100 (HGF, HPLF, HPC vs. Ca9-22, HSC-2, HSC-3, HSC-4); and as CC50 against HGF/(CC50 against Ca9-22)2 × 100 using the pair of cell types from the same tissue (gingiva) (see Table 1).
as §1

[6] = system: gingival fibroblast (HGF), normal oral cells; assay: MTT cytotoxicity assay, HGF; format: cell-based, human; details: 48 h, average of three determinations
Procedure: as §2, §3, §5

[7] = system: HSC-4 cells (OSCC, tongue); assay: MTT cytotoxicity assay, HSC-4; format: cell-based, human; details: average of three determinations
Procedure: as §2, §3, §5

[8] = system: HSC-2 cells (OSCC, tongue); assay: MTT cytotoxicity assay, HSC-2; details: for relative cytotoxicity against HSC-2: from CC50 values 1.1, 2.8, 3.6 μM; for CC50: read-out: CC50 HSC-2
Procedure: as §2, §3, §5

[9] = system: periodontal ligament fibroblast (HPLF), normal oral cells; assay: MTT cytotoxicity assay, HPLF; format: cell-based, human; details: 48 h, average of three determinations
Procedure: as §2, §3, §4

[10] = MTT cytotoxicity assay, HPC; format: cell-based, human; details: female, human, human pulp cells (HPC), normal oral cells, average of three determinations
Procedure: as §2, §3, §4

[11] = MTT cytotoxicity, three normal oral cell types together (mean); format: cell-based, human; details: female, human; mean of HGF, HPLF, HPC; read-out: CC50 normal oral cells mean (D)
Excerpt: as §1

[12] = MTT cytotoxicity assay, HGF; format: cell-based, human; details: human, human gingival fibroblasts (HGF), normal oral cells, average of three determinations
Procedure: as §2, §3, §5

[13] = MTT cytotoxicity assay, HPLF; format: cell-based, human; details: female, human, normal oral cells, average of three determinations
Procedure: as §2, §3, §4

U251 cells = system: U251 cells; design: method as in El-Awady et al., 2011; details: most sensitive of five cancer cell lines; ref El-Awady et al., 2011; cited from earlier work
HeLa cells = system: HeLa cells; design: method as in El-Awady et al., 2011; details: most resistant of five cancer cell lines; ref El-Awady et al., 2011; cited from earlier work

| Compound | TS (C/A) tumor-selectivity index [2] | PSE (C/A^2)x100 potency-selectivity expression [2] | effect on cell cycle distribution (HSC-2 cells) | type of growth inhibition on the OSCC cell lines [5] | TS (D/B) tumor-selectivity index [5] | PSE (D/B^2)x100 potency-selectivity expression [5] | CC50 at 48 h [10] [µM] | CC50 ([2]; Homo sapiens, Ca9-22) [µM] | CC50 at 48 h [11] [µM] | CC50 ([4]; Homo sapiens, HSC-3) [µM] | increase of cytotoxicity against HSC-3 compared to MS4 [4] | CC50 ([5]; Homo sapiens) [µM] | CC50 at 48 h [12] [µM] | CC50 ([7]; Homo sapiens, HSC-4, 48 h) [µM] | CC50 ([8]; Homo sapiens, HSC-2, 48 h) [µM] | CC50 at 48 h [13] [µM] | other results |
| --- | --- | --- | --- | --- | --- | --- | --- | --- | --- | --- | --- | --- | --- | --- | --- | --- | --- |
| NS(=O)(=O)c1ccc(-n2cc(/C=C/C(=O)c3ccccc3)c(-c3ccccc3)n2)cc1 [MS4, (E)-4-(4-(3-Oxo-3-phenylprop-1-en-1-yl)-3-phenyl-1H-pyrazol-1 yl) benzenesulfonamide] | 71.2 | > 1444 | increased the cell population in the S and G2/M phases; also recorded: only slightly induced such changes in cell cycle distribution; also recorded: induced G2+M arrest | cytostatic effects; also recorded: cytostatic growth inhibition | >103.7 | > 2800 |  |  |  |  |  |  |  |  |  |  | CC50 [1]: > 400 µM; CC50 [2]: 4.9 µM; subG1 cell population (HSC-2 cells; 2.2 μM): 2.0%; CC50 [3]: > 384 µM; CC50 [4]: 5.2 µM; CC50 [5]: 3.7 µM; CC50 [6]: 351 µM; CC50 ([7]; 48 h): 3.5 µM; relative cytotoxicity against HSC-2 [8]: 3.3 fold; CC50 ([8]; OSCC, 48 h, MTT, average of three determinations): 1.1 µM; CC50 [9]: > 400 µM |
| COc1ccc(C(=O)/C=C/c2cn(-c3ccc(S(N)(=O)=O)cc3)nc2-c2ccccc2)cc1 [MS6, (E)-4-(4-(3-(4-Methoxyphenyl)-3-oxoprop-1-en-1-yl)-3-phenyl-1H-pyrazol-1-yl)benzenesulfonamide] | 66.5 | 2115 |  | cytotoxic effects | 33.9 |  | 51.9 | 3.1 | 120 | 3.6 | 1.5–2 times | 3.5 | 209 | 3.3 | 4.1 | 99.7 |  |
| COc1cc(OC)c(C(=O)/C=C/c2cn(-c3ccc(S(N)(=O)=O)cc3)nc2-c2ccccc2)cc1OC [MS7, (E)-4-(4-(3-Oxo-3-(2,4,5-trimethoxyphenyl)prop-1-en-1-yl)-3-phenyl-1H-pyrazol-1-yl)benzenesulfonamide] | >247.4 |  | increased the cell population in the S and G2/M phases | cytotoxic effects; also recorded: cytotoxic growth inhibition | >148.7 | > 5531 | > 400 | 1.6 | > 400 | 3.3 | 1.5–2 times | 2.7 | > 400 | 3 | 2.8 | > 400 | times more cytotoxic towards Ca9-22 than 5-FU ([2]; relative to reference compound 5-FU): 20.6 times; subG1 cell population (HSC-2 cells; 5.6 μM): 1.0%; subG1 cell population (HSC-2 cells; 11.2 μM): 1.3%; share of S-phase cells (HSC-2 cells; concentration not given): 20.6%; share of G2+M phase cells (HSC-2 cells; concentration not given): 35.0%; G1 phase cells (HSC-2 cells; control 63.2%, concentration not given): 44.5%; effect on cell cycle distribution (HSC-2 cells; listed as 7): induced G2+M arrest; relative cytotoxicity against HSC-2 [8]: 1.3 fold |
| COc1cc(C(=O)/C=C/c2cn(-c3ccc(S(N)(=O)=O)cc3)nc2-c2ccccc2)cc(OC)c1OC [MS8, (E)-4-(4-(3-Oxo-3-(3,4,5-trimethoxyphenyl)prop-1-en-1-yl)-3-phenyl-1H-pyrazol-1-yl)benzenesulfonamide] | >169.0 | > 7141 | increased the cell population in the S and G2/M phases | cytotoxic effects; also recorded: cytotoxic growth inhibition | >113.5 | > 3389 | > 400 | 2.4 | > 380 | 4 | 1.5–2 times | 3.3 | > 400 | 3.5 | 3.6 | 340 | subG1 cell population (HSC-2 cells; 7.2 μM): 1.3%; share of S-phase cells (HSC-2 cells; concentration not given): 21.2%; share of G2+M phase cells (HSC-2 cells; concentration not given): 35.4%; effect on cell cycle distribution (HSC-2 cells; listed as 8): induced G2+M arrest |
| COc1ccc(C(=O)/C=C/c2cn(-c3ccc(S(N)(=O)=O)cc3)nc2-c2ccccc2)cc1OC [MS9, (E)-4-(4-(3-(3,4-Dimethoxyphenyl)-3-oxoprop-1-en-1-yl)-3-phenyl-1H-pyrazol-1-yl)benzenesulfonamide] | >40.1 |  |  | mixed effects | >9.0 |  | > 400 | 10 | > 400 | 35 |  | 44.6 | > 400 | 83 | 50.3 | > 400 |  |
| NS(=O)(=O)c1ccc(-n2cc(/C=C/C(=O)c3cccs3)c(-c3ccccc3)n2)cc1 [MS10, (E)-4-(4-(3-Oxo-3-(thiophen-2-yl)prop-1-en-1-yl)-3-phenyl-1H-pyrazol-1-yl)benzenesulfonamide] | 26.4 | 4191 |  | mixed effects | 25.9 |  | 6.7 | 0.63 | 48 | 4.63 |  | 1.86 | 16.6 | 1.78 | 0.38 | 121 |  |
| Cc1ccc(-c2cc(C(F)(F)F)nn2-c2ccc(S(N)(=O)=O)cc2)cc1 [celecoxib] |  |  |  |  |  |  |  |  |  |  |  |  |  |  |  |  | IC50 (U251 cells): 11.7 µM; IC50 (HeLa cells): 37.2 µM |
